Source: patent publication US5527781A, “4-O-(aminoglycosyl)- or 4,6-di-O-(aminoglycosyl)-2,5-dideoxy-5,5-difluorostreptamine derivatives” (Zaidan Hojin Biseibutsu Kagaku Kenkyu Kai, priority 1990, dated 1996)
In brackets after ≈: the same amount, converted by molar mass. Like-named read-outs stand apart in the source and are kept apart here.

Key:
[1] = system: Escherichia coli JR225; assay: microbe, parasite or virus in culture; assay type: cell-based; details: resistance mechanism AAC(3), Mueller-Hinton agar, 37° C
[2] = system: Bacillus subtilis PCI219; assay: MIC, standard serial dilution method; assay type: cell-based; details: Mueller-Hinton agar, 37° C
[3] = system: Serratia marcescens; assay: MIC, standard serial dilution method; assay type: cell-based; details: Mueller-Hinton agar, 37° C
[4] = system: Escherichia coli K-12 LA 290 R55; assay: microbe, parasite or virus in culture; assay type: cell-based; details: K12LA290R55; Escherichia coli K-12 LA 290 R55; resistance mechanism ANT(2"); Mueller-Hinton agar, 37° C
[5] = system: Escherichia coli K-12 ML 1629; assay: microbe, parasite or virus in culture; assay type: cell-based; details: K12ML1629
[6] = system: Escherichia coli K-12 R5; assay: microbe, parasite or virus in culture; assay type: cell-based; details: K12R5; Escherichia coli K-12 R5; resistance mechanism AAC(6'); Mueller-Hinton agar, 37° C
[7] = system: Escherichia coli K-12; assay: MIC, standard serial dilution method; assay type: cell-based; details: K12
[8] = system: Providencia sp. Pv 16; assay: MIC, standard serial dilution method; assay type: cell-based; details: SP.PV16, resistance mechanism AAC(2'), Mueller-Hinton agar, 37° C
[9] = system: Klebsiella pneumoniae 22#3038; assay: MIC, standard serial dilution method; assay type: cell-based; details: resistance mechanism APH(3')-II, ANT(2"), Mueller-Hinton agar, 37° C
[10] = system: Staphylococcus aureus Ap01; assay: MIC, standard serial dilution method; assay type: cell-based; details: resistance mechanism ANT(4'), Mueller-Hinton agar, 37° C
[11] = system: Proteus rettgeri GN 311; assay: MIC, standard serial dilution method; assay type: cell-based; details: Providencia rettgeri, GN311; Proteus rettgeri GN 311; Mueller-Hinton agar, 37° C; read-out: MIC
[12] = system: Staphylococcus aureus 209P; assay: MIC, standard serial dilution method; assay type: cell-based; details: Mueller-Hinton agar, 37° C
[13] = system: Pseudomonas aeruginosa A3; assay: MIC, standard serial dilution method; assay type: cell-based; details: Mueller-Hinton agar, 37° C
[14] = system: Mycobacterium 607; assay: MIC, standard serial dilution method; assay type: cell-based; details: Mueller-Hinton agar, 37° C
[15] = system: Corynebacterium bovis 1810; assay: MIC, standard serial dilution method; assay type: cell-based; details: Mueller-Hinton agar, 37° C
[16] = system: Pseudomonas aeruginosa GN 315; assay: MIC, standard serial dilution method; assay type: cell-based; details: GN315
[17] = in vivo; details: mouse, iv
Text: Further, in order to estimate acute toxicity of the compound of the general formula (I) according to this invention, some examples of the compounds of this invention were independently dissolved in water to prepare aqueous solutions (as adjusted to pH 7 by addition of hydrochloric acid). […] The tested compounds of this invention are expressed by the same abbreviations as in Table 1. […] The comparative compounds as tested are also expressed by the same abbreviations as in Table 1.

[18] = Escherichia coli K-12 ML 1629, resistance mechanism APH(3')-I, Mueller-Hinton agar, 37° C, read-out: MIC
[19] = Escherichia coli K-12, Mueller-Hinton agar, 37° C, read-out: MIC
[20] = Pseudomonas aeruginosa GN 315, resistance mechanism AAC(6'), Mueller-Hinton agar, 37° C, read-out: MIC

Row | SMILES | MIC [1] | MIC [2] | MIC [3] | MIC [4] | MIC [5, 18] | MIC [6] | MIC [7, 19] | MIC [8] | MIC [9] | MIC [10] | MIC [11] | MIC [12] | MIC [13] | MIC [14] | MIC [15] | MIC [16, 20] | LD50 ([17]; pH 7) | further results
1 | NCC[C@H](O)C(=O)N[C@@H]1C[C@H](N)[C@@H](O[C@H]2O[C@H](CN)CC[C@H]2N)[C@H](F)[C@H]1O[C@H]1O[C@H](CO)[C@@H](O)[C@H](N)[C@H]1O [Compound 5F-DKB-AHB, 1-N-[4-amino-2-(S)-hydroxybutyryl]-5,3',4'-trideoxy-5-fluorokanamycin B, reference compound] | < 0.2 µg/mL | < 0.2 µg/mL | 3.12 µg/mL (≈ 5.63 µM) | 0.39 µg/mL (≈ 0.703 µM) | 0.39 µg/mL (≈ 0.703 µM) | 12.5 µg/mL (≈ 22.5 µM) | < 0.2 µg/mL | 0.39 µg/mL (≈ 0.703 µM) | 0.78 µg/mL (≈ 1.41 µM) | 1.56 µg/mL (≈ 2.81 µM) | – | – | – | – | – | – | – | –
2 | NC[C@H]1O[C@H](O[C@H]2[C@H](O)[C@@H](O[C@H]3O[C@H](CO)[C@@H](O)[C@H](N)[C@H]3O)[C@H](N)C[C@@H]2N)[C@H](N)[C@@H](O)[C@@H]1O [KMB, kanamycin B, reference compound] | – | < 0.2 µg/mL | – | – | > 100 µg/mL | – | 0.39 µg/mL (≈ 0.807 µM) | 12.5 µg/mL (≈ 25.9 µM) | > 100 µg/mL | – | 0.2 µg/mL (≈ 0.414 µM) | 0.39 µg/mL (≈ 0.807 µM) | 1.56 µg/mL (≈ 3.23 µM) | – | – | – | – | –
3 | NC[C@H]1O[C@H](O[C@@H]2[C@@H](N)C[C@@H](N)[C@H](O[C@H]3O[C@H](CO)[C@@H](O)[C@H](N)[C@H]3O)C2(F)F)[C@H](N)[C@@H](O)[C@@H]1O [Compound 5FF-KMB, 5-deoxy-5,5-difluorokanamycin B] | 3.12 µg/mL (≈ 6.2 µM) | 0.39 µg/mL (≈ 0.775 µM) | 6.25 µg/mL (≈ 12.4 µM) | 3.12 µg/mL (≈ 6.2 µM) | > 100 µg/mL | 100 µg/mL (≈ 199 µM) | 0.39 µg/mL (≈ 0.775 µM) | 12.5 µg/mL (≈ 24.8 µM) | – | 50 µg/mL (≈ 99.3 µM) | 0.39 µg/mL (≈ 0.775 µM) | 0.78 µg/mL (≈ 1.55 µM) | 3.12 µg/mL (≈ 6.2 µM) | 1.56 µg/mL (≈ 3.1 µM) | 1.56 µg/mL (≈ 3.1 µM) | > 100 µg/mL | – | –
4 | NC[C@H]1O[C@H](O[C@H]2[C@H](F)[C@@H](O[C@H]3O[C@H](CO)[C@@H](O)[C@H](N)[C@H]3O)[C@H](N)C[C@@H]2N)[C@H](N)C[C@@H]1O [Compound 5F-TOB, 5,3'-dideoxy-5-fluorokanamycin B, reference compound] | – | < 0.2 µg/mL | – | – | – | – | – | 3.12 µg/mL (≈ 6.65 µM) | 3.12 µg/mL (≈ 6.65 µM) | – | – | – | – | – | – | – | ~180 mg/kg | –
5 | NC[C@H]1O[C@H](O[C@@H]2[C@@H](N)C[C@@H](N)[C@H](O[C@H]3O[C@H](CO)[C@@H](O)[C@H](N)[C@H]3O)C2(F)F)[C@H](O)[C@@H](O)[C@@H]1O [Compound 5FF-KMA, 5-deoxy-5,5-difluorokanamycin A] | 1.56 µg/mL (≈ 3.09 µM) | 0.78 µg/mL (≈ 1.55 µM) | 12.5 µg/mL (≈ 24.8 µM) | 12.5 µg/mL (≈ 24.8 µM) | > 100 µg/mL | > 100 µg/mL | – | 12.5 µg/mL (≈ 24.8 µM) | – | 50 µg/mL (≈ 99.1 µM) | 1.56 µg/mL (≈ 3.09 µM) | 3.12 µg/mL (≈ 6.18 µM) | 6.25 µg/mL (≈ 12.4 µM) | 3.12 µg/mL (≈ 6.18 µM) | 12.5 µg/mL (≈ 24.8 µM) | > 100 µg/mL | > 300 mg/kg | MIC ([7]; Escherichia coli): 0.78 µg/mL (≈ 1.55 µM)
6 | NC[C@H]1O[C@H](O[C@H]2[C@H](F)[C@@H](O[C@H]3O[C@H](CO)[C@@H](O)[C@H](N)[C@H]3O)[C@H](N)C[C@@H]2N)[C@H](N)[C@@H](O)[C@@H]1O [5-deoxy-5-fluorokanamycin B, reference compound] | – | – | – | – | – | – | – | – | – | – | – | – | – | – | – | – | – | LD50 [17]: ~135 mg/kg
7 | NC[C@@H]1CC[C@@H](N)[C@@H](O[C@H]2[C@H](O)[C@@H](O[C@H]3O[C@H](CO)[C@@H](O)[C@H](N)[C@H]3O)[C@H](N)C[C@@H]2N)O1 [DKB, 3',4'-dideoxy-kanamycin B, reference compound] | – | < 0.2 µg/mL | – | – | – | – | 0.39 µg/mL (≈ 0.864 µM) | – | 50 µg/mL (≈ 111 µM) | – | < 0.2 µg/mL | – | – | – | – | – | – | MIC ([16]; Pseudomonas aeruginosa): 100 µg/mL (≈ 221 µM)
8 | NC[C@H]1O[C@H](O[C@H]2[C@H](O)[C@@H](O[C@H]3O[C@H](CO)[C@@H](O)[C@H](N)[C@H]3O)[C@H](N)C[C@@H]2N)[C@H](N)C[C@@H]1O [TOB, 3'-deoxykanamycin B, reference compound] | – | < 0.2 µg/mL | 3.12 µg/mL (≈ 6.67 µM) | 12.5 µg/mL (≈ 26.7 µM) | – | 25 µg/mL (≈ 53.5 µM) | 0.39 µg/mL (≈ 0.834 µM) | 6.25 µg/mL (≈ 13.4 µM) | 12.5 µg/mL (≈ 26.7 µM) | 12.5 µg/mL (≈ 26.7 µM) | 0.39 µg/mL (≈ 0.834 µM) | < 0.2 µg/mL | – | 0.39 µg/mL (≈ 0.834 µM) | 1.56 µg/mL (≈ 3.34 µM) | 25 µg/mL (≈ 53.5 µM) | ~80 mg/kg | MIC ([5]; Escherichia coli): 0.78 µg/mL (≈ 1.67 µM)
9 | NCC[C@H](O)C(=O)N[C@@H]1C[C@H](N)[C@@H](O[C@H]2O[C@H](CN)[C@@H](O)[C@H](O)[C@H]2O)[C@H](O)[C@H]1O[C@H]1O[C@H](CO)[C@@H](O)[C@H](N)[C@H]1O [Amikacin, amikacin, reference compound] | – | 0.39 µg/mL (≈ 0.666 µM) | 3.12 µg/mL (≈ 5.33 µM) | 1.56 µg/mL (≈ 2.66 µM) | 1.56 µg/mL (≈ 2.66 µM) | 100 µg/mL (≈ 171 µM) | – | 1.56 µg/mL (≈ 2.66 µM) | 3.12 µg/mL (≈ 5.33 µM) | > 100 µg/mL | 1.56 µg/mL (≈ 2.66 µM) | – | – | – | 1.56 µg/mL (≈ 2.66 µM) | 50 µg/mL (≈ 85.4 µM) | > 300 mg/kg | –
10 | NCC[C@H](O)C(=O)N[C@@H]1C[C@H](N)[C@@H](O[C@H]2O[C@H](CN)CC[C@H]2N)[C@H](O)[C@H]1O[C@H]1O[C@H](CO)[C@@H](O)[C@H](N)[C@H]1O [HBK, 1-N-[4-amino-(S)-2-hydroxybutyryl]-3',4'-dideoxykanamycin B, reference compound] | – | – | – | – | – | – | – | – | – | – | – | – | – | – | – | – | 70 mg/kg | –
11 | NCC[C@H](O)C(=O)N[C@@H]1C[C@H](N)[C@@H](O[C@H]2O[C@H](CN)[C@@H](O)C[C@H]2N)[C@H](F)[C@H]1O[C@H]1O[C@H](CO)[C@@H](O)[C@H](N)[C@H]1O [Compound 5F-TOB-AHB, 1-N-[4-amino-2-(S)-hydroxybutyryl]-5,3'-dideoxy-5-fluorokanamycinB, reference compound] | < 0.2 µg/mL | – | 3.12 µg/mL (≈ 5.47 µM) | 0.39 µg/mL (≈ 0.683 µM) | 0.39 µg/mL (≈ 0.683 µM) | – | < 0.2 µg/mL | 0.39 µg/mL (≈ 0.683 µM) | 0.78 µg/mL (≈ 1.37 µM) | 3.12 µg/mL (≈ 5.47 µM) | – | – | < 0.2 µg/mL | 0.39 µg/mL (≈ 0.683 µM) | – | 1.56 µg/mL (≈ 2.73 µM) | – | –
12 | NC[C@@H]1CC[C@@H](N)[C@@H](O[C@H]2[C@H](F)[C@@H](O[C@H]3O[C@H](CO)[C@@H](O)[C@H](N)[C@H]3O)[C@H](N)C[C@@H]2N)O1 [Compound 5F-DKB, 5,3',4'-trideoxy-5-fluorokanamycin B, reference compound] | – | – | – | – | 3.12 µg/mL (≈ 6.88 µM) | – | 3.12 µg/mL (≈ 6.88 µM) | – | 6.25 µg/mL (≈ 13.8 µM) | 3.12 µg/mL (≈ 6.88 µM) | – | – | – | 6.25 µg/mL (≈ 13.8 µM) | 6.25 µg/mL (≈ 13.8 µM) | – | ~135 mg/kg | –
